# Results as given in patent US20040249124A1 (priority 2001, published 2004).
# System: antibody MBS-3 binding to p17
# Test: Competitive ELISA: displacement of MBS-3 binding to p17 absorbed in solid phase
substance,measurement,value
NH2-Ser-Gly-Gly-Glu-Leu-Asp-Arg-Trp-Glu-Lys-Ile-Arg-Leu-Arg-COOH (H-SGGELDRWEKIRLR-OH) [SEQ ID NO: 2],displacing the binding of the antibody MBS-3 to p17,efficacious in displacing
